Results on one molecule are retold here after paper PMC2810227, “3-O-Methylfunicone, a Selective Inhibitor of Mammalian Y-Family DNA Polymerases from an Australian Sea Salt Fungal Strain” (Marine Drugs, 2009).

One test has as its target T1, human pol κ (Homo sapiens, UniProt Q9UBT6).
T1 construct: A truncated form of pol κ (residues 1–560) with 6 x His-tags attached at the C-terminus; 6xHis (C); made in house; host or cells: E. coli
T1 sequence (Q9UBT6 1-560): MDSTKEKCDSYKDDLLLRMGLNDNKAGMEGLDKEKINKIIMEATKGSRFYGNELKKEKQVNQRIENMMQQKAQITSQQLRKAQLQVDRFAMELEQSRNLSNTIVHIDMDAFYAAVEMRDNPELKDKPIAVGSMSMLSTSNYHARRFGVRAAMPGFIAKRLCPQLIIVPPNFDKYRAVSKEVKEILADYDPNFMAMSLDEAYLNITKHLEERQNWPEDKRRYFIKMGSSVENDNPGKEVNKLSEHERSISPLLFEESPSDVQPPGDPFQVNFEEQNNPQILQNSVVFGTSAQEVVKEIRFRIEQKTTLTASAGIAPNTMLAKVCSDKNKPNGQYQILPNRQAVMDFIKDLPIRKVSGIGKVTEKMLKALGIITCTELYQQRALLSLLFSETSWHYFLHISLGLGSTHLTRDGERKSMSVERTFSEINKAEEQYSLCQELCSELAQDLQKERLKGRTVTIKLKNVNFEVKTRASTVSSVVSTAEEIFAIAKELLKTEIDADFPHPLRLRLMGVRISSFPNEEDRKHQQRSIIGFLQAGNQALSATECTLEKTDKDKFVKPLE
Nature of the test: DNA polymerase assay, pol κ. It counts as biochemical. The source says:
Pol α was purified from calf thymus by immuno-affinity column chromatography, as described by Tamai et al.. Recombinant rat pol β was purified from E. coli JMpβ5, as described by Date et al.. The human pol γ catalytic gene was cloned into pFastBac. Histidine-tagged enzyme was expressed using the BAC-TO-BAC HT Baculovirus Expression System according to the supplier’s manual (Life Technologies, MD, USA) and purified using ProBoundresin (Invitrogen Japan, Tokyo, Japan). Human pols δ and ɛ were purified by nuclear fractionation of human peripheral blood cancer cells (Molt-4) using the second subunit of pols δ and ɛ-conjugated affinity column chromatography, respectively. A truncated form of human pol η (residues 1–511) tagged with His6 at its C-terminal was expressed in E. coli cells and purified as described by Kusumoto et al.. A recombinant mouse pol ι tagged with His6 at its C-terminal was expressed and purified by Ni-NTA column chromatography as described elsewhere (Masutani et al., in preparation). […]
The compounds were dissolved in distilled dimethyl sulfoxide (DMSO) at various concentrations and sonicated for 30 sec. […] Activity without the inhibitor was considered 100%, and the remaining activity at each concentration of the inhibitor was determined relative to this value. […]

For test [1], the system named is HCT116 (colon carcinoma cells). Nature of the test: Cancer cell growth, MTT assay, HCT116. It counts as cell-based, human. How it is done:
Figure 5. (A) Human cancer cell growth inhibition dose-response curves of 3-O-methyl-funicone (1). Various concentrations (0 to 150 μM) of compound 1 were incubated with human colon carcinoma (HCT116) cells (circle) and human cervix carcinoma (HeLa) cells (square) for 24 h. Rate of cell growth was determined by MTT assay as described in the Experimental section. Data are shown as the means ± SEM of five independent experiments. (B) Clonogenic survival of UV-treated HeLa cells by compound 1. Various concentrations (0 to 100 μM) of compound 1 were incubated with 10 J/m^2 UV-treated (closed circle) or untreated (open circle) HeLa cells. After 7 days, the number of colonies in each treatment group was counted. Values are the means ± SEM of two independent experiments.
Human colon carcinoma cell line, HCT116, was a kind gift from Dr. Bert Vogelstein (Johns Hopkins University, Baltimore, […], USA). Human cervix carcinoma cell line, HeLa, was obtained from Health Science Research Resources Bank (Osaka, Japan). The cells were maintained in McCoy’s 5A medium supplemented with 10% FBS, sodium bicarbonate (2 g/L) and streptomycin (100 μg/mL). The cells were cultured at 37 °C in standard medium in a humidified atmosphere of 5% CO2-95% air. […] After incubation for 24 h, the survival rate was determined by MTT (3-(4,5-dimethylthiazol-2-yl)-2,5-diphenyl tetrazolium bromide) assay.
In general terms: Tetrazolium assays rely on reduction of a dye to a coloured formazan, in cell work by metabolically active cells.

Each structure is given as a SMILES string.

As to `C/C=C/c1occ(C(=O)c2c(OC)cc(OC)cc2C(=O)OC)c(=O)c1OC` [compound 1, 3-O-methylfunicone], the “effect on pol κ activity” value at human pol κ (100 μM) is listed as “selectively inhibit”. At human pol κ (poly(dA)/oligo(dT)18 and dTTP, 0.05 units enzyme, read-out: 50% inhibition of pol κ (IC50)), the IC50 (as a rule, the concentration at which inhibition is half-maximal) was 12.5 µM. Moreover, the “LD50, cell growth” value in test [1] (HCT116, 24 h, MTT assay) was 63.8 µM. Besides, the “cell growth inhibition dose relative to the enzyme inhibitory concentration” value in test [1] (LD50 (HCT116 and HeLa) versus IC50 for Y-family pols) is listed as 1.3 to 5.1 fold.
